This note sets out measurements from patent US12479830B2, “Homopiperazinyl and homopiperidinyl quinazolin-4(3H)-one derivatives having multimodal activity against pain” (ESTEVE PHARMACEUTICALS, S.A., priority 2019, dated 2025).

For one experiment, the target named is T1, Human σ1 receptor (Homo sapiens, UniProt Q99720).
T1 construct: expressed in transfected cells; host or cells: HEK-293
Kind of experiment: Human σ1 receptor radioligand assay ([3H](+)-pentazocine binding). The settings on record: binding to the σ1 receptor, expressed as Ki class; + also covers inhibition between 1% and 50%. The gist of the method: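 Ki was derived from five test concentrations, or % inhibition was measured at a single 1 or 10 μM dose, against 5 nM [3H](+)-pentazocine. Incubation was 120 min at 37° C in 50 mM Tris-HCl pH 8 with 7 μg HEK-293 membranes, and 10 μM haloperidol set non-specific binding. Bound radioactivity was counted after filtration.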

The target in experiment [1] is Human α2δ-1 subunit of Cav2.2 calcium channel (Homo sapiens, UniProt P54289). As to the kind of experiment: Human α2δ-1 subunit of Cav2.2 calcium channel assay ([3H]-gabapentin binding). The settings on record: binding to the α2δ-1 subunit of voltage-gated calcium channels, expressed as Ki class; + also covers inhibition between 1% and 50%. An outline of the steps:
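Affinity (Ki, five concentrations) or % inhibition at 1 or 10 μM, from displacement of 15 nM [3H]-gabapentin on human α2δ-1 membranes. Incubation 60 min, 27° C., Hepes-KOH 10 mM pH 7.4; 10 μM pregabalin defined non-specific binding; bound radioactivity counted after GF/C filtration.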

Chain of Human α2δ-1 subunit of Cav2.2 calcium channel (P54289 25-1103): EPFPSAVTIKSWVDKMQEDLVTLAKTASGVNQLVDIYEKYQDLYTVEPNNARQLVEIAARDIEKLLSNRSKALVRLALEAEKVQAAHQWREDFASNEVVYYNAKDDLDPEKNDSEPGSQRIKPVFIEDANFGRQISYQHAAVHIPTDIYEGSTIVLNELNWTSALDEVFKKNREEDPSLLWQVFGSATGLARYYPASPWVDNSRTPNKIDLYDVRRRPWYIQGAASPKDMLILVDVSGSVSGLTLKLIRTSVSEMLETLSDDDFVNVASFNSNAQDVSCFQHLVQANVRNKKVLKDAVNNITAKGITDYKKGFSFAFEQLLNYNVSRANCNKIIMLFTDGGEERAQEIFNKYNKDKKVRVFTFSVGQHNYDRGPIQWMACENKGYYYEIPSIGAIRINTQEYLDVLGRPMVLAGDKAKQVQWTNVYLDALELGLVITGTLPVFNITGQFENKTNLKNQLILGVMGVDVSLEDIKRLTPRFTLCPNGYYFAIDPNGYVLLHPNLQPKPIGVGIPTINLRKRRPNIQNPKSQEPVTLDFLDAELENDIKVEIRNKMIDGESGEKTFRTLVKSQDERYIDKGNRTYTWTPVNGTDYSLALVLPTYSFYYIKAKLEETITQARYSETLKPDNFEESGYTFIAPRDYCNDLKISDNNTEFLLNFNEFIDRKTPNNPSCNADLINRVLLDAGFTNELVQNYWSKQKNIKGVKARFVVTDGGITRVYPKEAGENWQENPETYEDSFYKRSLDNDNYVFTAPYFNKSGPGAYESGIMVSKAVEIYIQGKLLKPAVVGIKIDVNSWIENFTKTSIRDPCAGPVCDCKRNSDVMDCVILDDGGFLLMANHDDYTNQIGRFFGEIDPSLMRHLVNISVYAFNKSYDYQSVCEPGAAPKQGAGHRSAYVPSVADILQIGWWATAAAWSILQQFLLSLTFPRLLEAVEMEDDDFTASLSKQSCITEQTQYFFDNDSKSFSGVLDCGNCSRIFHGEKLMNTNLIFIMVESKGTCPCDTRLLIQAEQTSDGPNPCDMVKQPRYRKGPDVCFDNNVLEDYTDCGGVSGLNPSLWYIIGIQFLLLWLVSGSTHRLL
T1 sequence (Q99720 whole entry): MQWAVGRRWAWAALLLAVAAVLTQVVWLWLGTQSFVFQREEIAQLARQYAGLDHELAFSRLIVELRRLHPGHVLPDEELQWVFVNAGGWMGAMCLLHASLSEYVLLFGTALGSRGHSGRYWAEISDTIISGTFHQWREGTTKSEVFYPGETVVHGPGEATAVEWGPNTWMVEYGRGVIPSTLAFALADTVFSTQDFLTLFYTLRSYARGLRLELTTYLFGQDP

Take `CCCCn1c([C@@H](CCC)N2CCCN(C)CC2)nc2ccc(F)cc2c1=O` [Example 224, (R)-3-butyl-6-fluoro-2-(1-(4-methyl-1,4-diazepan-1-yl)butyl)quinazolin-4(3H)-one]: the Ki (at Human σ1 receptor; in experiment [1]) was less than 500 nM in each case.
With `CCCCn1c([C@@H](CCC)N2CCCN(CC)CC2)nc2ccc(F)cc2c1=O` [Example 225, (R)-3-butyl-2-(1-(4-ethyl-1,4-diazepan-1-yl)butyl)-6-fluoroquinazolin-4(3H)-one], the inhibition constant (Ki) (at Human σ1 receptor; in experiment [1]) was less than 500 nM throughout.
For `CCC[C@H](c1nc2ccc(F)cc2c(=O)n1CCC(C)C)N1CCCN(C)CC1` [Example 226, (R)-6-fluoro-3-isopentyl-2-(1-(4-methyl-1,4-diazepan-1-yl)butyl)quinazolin-4(3H)-one], the inhibitory constant (Ki) – broadly, the equilibrium dissociation constant of an inhibitor or competing ligand from its target – was less than 500 nM on Human σ1 receptor and greater than 5000 nM in experiment [1].
Regarding `CCC[C@H](c1nc2ccc(F)cc2c(=O)n1Cc1ccoc1)N1CCCN(C)CC1` [Example 227], the Ki (on Human σ1 receptor; in experiment [1]) was less than 500 nM in each case.
`CCC[C@H](c1nc2ccc(F)cc2c(=O)n1Cc1ccoc1)N1CCCN(CC)CC1` [Example 228, (R)-2-(1-(4-ethyl-1,4-diazepan-1-yl)butyl)-6-fluoro-3-(furan-3-ylmethyl)quinazolin-4(3H)-one]: the results for the Ki (on Human σ1 receptor; in experiment [1]) were less than 500 nM and 500 to 5000 nM, respectively.
As to `CCC[C@H](c1nc2cc(OC)c(F)cc2c(=O)n1CC)N1CCCN(C)CC1` [Example 230, (R)-3-ethyl-6-fluoro-7-methoxy-2-(1-(4-methyl-1,4-diazepan-1-yl)butyl)quinazolin-4(3H)-one], the Ki is 500 to 1000 nM at Human σ1 receptor and less than 500 nM in experiment [1].
Regarding `CCC[C@H](c1nc2cc(OC)c(F)cc2c(=O)n1CC)N1CCCN(CC)CC1` [Example 231, (R)-3-ethyl-2-(1-(4-ethyl-1,4-diazepan-1-yl)butyl)-6-fluoro-7-methoxyquinazolin-4(3H)-one], the Ki is 500 to 1000 nM on Human σ1 receptor and less than 500 nM in experiment [1].
The corresponding values for `CCC[C@H](c1nc2cc(F)c(F)cc2c(=O)n1CC)N1CCCN(C)CC1` [Example 232, (R)-3-ethyl-6,7-difluoro-2-(1-(4-methyl-1,4-diazepan-1-yl)butyl)quinazolin-4(3H)-one] are less than 500 nM and less than 500 nM.
For `CCC[C@H](c1nc2ccc(F)c(F)c2c(=O)n1CC)N1CCCN(C)CC1` [Example 233, (R)-3-ethyl-5,6-difluoro-2-(1-(4-methyl-1,4-diazepan-1-yl)butyl)quinazolin-4(3H)-one], the Ki (at Human σ1 receptor; in experiment [1]) was less than 500 nM throughout.
With `CCC[C@H](c1nc2c(F)cc(Cl)cc2c(=O)n1CC)N1CCCN(C)CC1` [Example 234, (R)-6-chloro-3-ethyl-8-fluoro-2-(1-(4-methyl-1,4-diazepan-1-yl)butyl)quinazolin-4(3H)-one], the Ki at Human σ1 receptor was 500 to 1000 nM; in experiment [1], less than 500 nM.
Consider `CCC[C@H](c1nc2ccc(F)cc2c(=O)n1CC)N1CCN[C@H](C)CC1` [Example 235, 3-ethyl-6-fluoro-2-((R)-1-((R)-5-methyl-1,4-diazepan-1-yl)butyl)quinazolin-4(3H)-one], for which the inhibitory constant (Ki) on Human σ1 receptor is greater than 1000 nM; in experiment [1], less than 500 nM.
With `CCC[C@H](c1nc2ccc(F)cc2c(=O)n1CC)N1CCN[C@@H](C)CC1` [Example 236, 3-ethyl-6-fluoro-2-((R)-1-((S)-5-methyl-1,4-diazepan-1-yl)butyl)quinazolin-4(3H)-one], the inhibition constant (Ki) (at Human σ1 receptor; in experiment [1]) was less than 500 nM throughout.
With `CCC[C@H](c1nc2cc(F)c(OC)cc2c(=O)n1CC)N1CCN(C)C[C@@H](C)C1` [Example 237, 2-((R)-1-((R)-4,6-dimethyl-1,4-diazepan-1-yl)butyl)-3-ethyl-7-fluoro-6-methoxyquinazolin-4(3H)-one], the Ki is greater than 1000 nM on Human σ1 receptor and less than 500 nM in experiment [1].
